Reference: patent publication US20130309306A1, “INTRAPULMONARY BENZODIAZEPINE FOR THE TREATMENT AND PREVENTION OF SEIZURES” (priority 2010, published 2013)
Marks after values point to notes of the source that are not given here.

What was measured:
[1] = Horizontal screen test, acute motor toxicity; format: in vivo, mice; details: intratracheal 100 μg/kg, any time point of the time course experiment
Experimental: The horizontal screen test was used to assess the acute motor toxicity of intratracheal midazolam (100 μg/kg) in the time course experiment.

[2] = system: PTZ-induced seizures; assay: PTZ seizure threshold test in mice (intravenous PTZ infusion), Example 1; format: in vivo
Experimental: (§1) Male NIH Swiss mice (22-30 g) were kept in a vivarium under controlled environmental conditions (temperature, 22-26° C.; humidity, 40-50%) with an artificial 12-h light/dark cycle. Wood chips were used in all cages. Experiments were performed during the light phase of the light/dark cycle after a minimum 30-min period of acclimation to the experimental room. The animal facilities were fully accredited by the Association for Assessment and Accreditation of Laboratory Animal Care. All studies were performed under protocols approved by the Animal Care and Use Committee of the University of California, Davis in strict compliance with the Guide for the Care and Use of Laboratory Animals of the National Research Council (National Academy Press, Washington, D.C.).
(§2) Intratracheal administration of midazolam was carried out as described by Oka et al. (2006). In brief, mice were briefly anesthetized using isoflurane anesthesia (4% isoflurane). The animals were immediately placed on a surgical board held at a 60° angle. The animal's mouth was kept open by hanging the upper incisors on a hook to facilitate detection of the epiglottis. An operating light was used to illuminate the view of the pharynx after displacement of the tongue with a spatula. A syringe fitted with a blunted 24-gauge/25-mm was pushed against the soft palate to enter the trachea past the vocal cords. When the tracheal cartilage ring is felt, the needle is considered properly placed within the tracheal lumen. The needle was inserted almost to the bottom of the trachea. When the animals began to show signs that the anesthesia was waning, the liquid sample was gently injected at a dose volume of 0.25 ml/kg. After the injection of solution, air (1 ml syringe) was blown inside the lungs to uniformly distribute the drug in the lungs. Following the injection, the needle was gently removed and animal was held vertically for 2 min to facilitate the downward movement of liquid in the lungs. The animal was allowed 10 min to recover fully from the anesthesia as confirmed by normal spontaneous exploratory behavior. Seizure testing then commenced. For each of the seizure tests, we verified that there was no residual effect of the anesthetic on responsiveness.
The thresholds for various behavioral seizure stages induced by the GABA receptor antagonists PTZ and picrotoxin were determined by infusing the convulsant drugs via a 27 gauge-¾ inch “butterfly” needle inserted into the lateral tail vein. The needle was secured to the tail vein by a narrow piece of adhesive tape and the animal was permitted to move freely inside an inverted 2 litre glass beaker with free aeration from the top. PTZ (10 mg/ml) (Akula et al., 2008), and picrotoxin (1 mg/ml) (Chan et al., 2006) was infused at a constant rate of 0.5 ml/min using a Beckton Dickinson (1 ml) syringe mounted on an infusion pump (Model ‘11’ plus syringe pump; Harvard Apparatus, Holliston, Mass., USA). The syringe was connected to the needle by polyethylene tubing. The infusion was stopped at 3 min or at the onset of tonic extension, whichever occurred first. The thresholds to the following endpoints were determined: (i) the first myoclonic jerk; (ii) the onset of generalized clonus with loss of righting reflexes; and (iii) the onset of tonic extension. Latencies were measured from the start of convulsant infusion to the onset of all these three events. The threshold value (mg/kg) for each endpoint was determined according to the following formula: (infusion duration [sec]×infusion rate [ml/min]×convulsant drug concentration [mg/ml]×1000)/(60 [sec]×weight of mouse [g]).
Results are expressed as mean±S.E.M.; the significance of the difference in the responses of treatment groups with respect to control is based on one-way analysis of variance (ANOVA) followed by specific post-hoc comparisons using Tukey's test. Differences were considered statistically significant when the probability of error was less than 0.05 (P<0.05). […]

[3] = system: picrotoxin-induced seizure; assay: Picrotoxin seizure threshold test in mice (intravenous infusion); format: in vivo
[4] = system: PTZ-induced convulsions; assay: PTZ-induced convulsions in mice (PTZ 80 mg/kg i.p.); format: in vivo
Experimental: as §1, §2
PTZ was administered intraperitoneally at a dose of 80 mg/kg, which causes clonic convulsions in >97% of mice (Dhir et al., 2006). […] The time of onset of myoclonic jerks, clonus and tonic extension; and the incidence of lethality was recorded.
Results are expressed as mean±S.E.M.; the significance of the difference in the responses of treatment groups with respect to control is based on one-way analysis of variance (ANOVA) followed by specific post-hoc comparisons using Tukey's test. Differences were considered statistically significant when the probability of error was less than 0.05 (P<0.05). Control values in the threshold tests were the mean threshold values for vehicle-treated groups.

[5] = intratracheal 12.5 μg/kg, pretreatment 10 min
[6] = intraperitoneal 100 μg/kg, pretreatment 10 min
[7] = intraperitoneal 500 μg/kg, pretreatment 10 min
[8] = intraperitoneal 750 μg/kg, pretreatment 10 min
[9] = intraperitoneal 1000 μg/kg, pretreatment 10 min
[10] = intratracheal 25 μg/kg, pretreatment 7 min
[11] = intratracheal 25 μg/kg, pretreatment 10 min
[12] = intratracheal 50 μg/kg, pretreatment 7 min
[13] = intratracheal 50 μg/kg, pretreatment 10 min
[14] = intratracheal 100 μg/kg, pretreatment 7 min
[15] = intratracheal 100 μg/kg, pretreatment 10 min
[16] = intratracheal 200 μg/kg, pretreatment 10 min

## Cc1ncc2n1-c1ccc(Cl)cc1C(c1ccccc1F)=NC2 [Midazolam, midazolam]
[1]
  acute motor toxicity, horizontal screen test: No motor toxicity was observed
[2]; 25 μg/kg and 50 μg/kg intratracheally, 10 minutes before intravenous PTZ (FIG. 5)
  anticonvulsant activity, PTZ i.v. seizure threshold model: active as anticonvulsant
[2]; administered intraperitoneally (FIG. 5)
  dose required for anticonvulsant activity, PTZ i.v. seizure threshold model: 0.5 mg/kg
[2]; administered intravenously, 10 minutes before intravenous PTZ (FIG. 5)
  dose required for anticonvulsant activity, PTZ i.v. seizure threshold model: 0.1 to 0.2 mg/kg
[2]; intraperitoneal 500, 1000, 2500 and 5000 μg/kg, pretreatment 15 min (FIG. 1A)
  thresholds for all seizure signs (myoclonic jerk, clonus, tonic extension) vs vehicle: significant elevation
[2]; [5]
  thresholds for seizure signs vs vehicle: enhanced the seizure threshold for clonic but ineffective against tonic extensor phases
[2]; intratracheal 100 μg/kg
  time of maximal effect: 5 to 15 min
[2]; intratracheal 100 μg/kg, pretreatment 5, 10, 20, 40 and 60 min (FIG. 2)
  time course: threshold vs vehicle pretreated animals: elevation in threshold
[2]; intratracheal 25, 50 and 100 μg/kg, pretreatment 10 min (FIG. 1B)
  thresholds for seizure signs vs vehicle: effective
[3]; [6]
  seizure threshold, picrotoxin infusion: effective in enhancing the seizure threshold for only clonic phase and ineffective against tonic extension
[3]; intraperitoneal 250, 500 and 1000 μg/kg, pretreatment 10 min (FIG. 3A)
  thresholds for all seizure signs, picrotoxin infusion: significant elevation
[3]; intratracheal 25 and 50 μg/kg, pretreatment 10 min (FIG. 3B)
  seizure thresholds, picrotoxin infusion: effective
[4]; [6]
  Mortality: 66.67* percent
  Percent showing clonus: 100%
  Percent showing extensor: 66.67* percent
  Percent showing myoclonic jerks: 100%
[4]; [7]
  Mortality: 0* percent
  Percent showing clonus: 83.33%
  Percent showing extensor: 0* percent
  Percent showing myoclonic jerks: 100%
[4]; [8]
  Mortality: 0* percent
  Percent showing clonus: 33.33* percent
  Percent showing extensor: 0* percent
  Percent showing myoclonic jerks: 83.33%
[4]; [9]
  Mortality: 0* percent
  Percent showing clonus: 0* percent
  Percent showing extensor: 0* percent
  Percent showing myoclonic jerks: 50* percent
[4]; [5]
  Mortality: 83.33%
  Percent showing clonus: 100%
  Percent showing extensor: 83.33%
  Percent showing myoclonic jerks: 100%
[4]; [10]
  Mortality: 0* percent
  Percent showing clonus: 83.33%
  Percent showing extensor: 0* percent
  Percent showing myoclonic jerks: 100%
[4]; [11]
  Mortality: 50* percent
  Percent showing clonus: 100%
  Percent showing extensor: 50* percent
  Percent showing myoclonic jerks: 100%
[4]; [12]
  Mortality: 0* percent
  Percent showing clonus: 50* percent
  Percent showing extensor: 0* percent
  Percent showing myoclonic jerks: 66.66* percent
[4]; [13]
  Mortality: 16.66* percent
  Percent showing clonus: 66.66* percent
  Percent showing extensor: 16.66* percent
  Percent showing myoclonic jerks: 83.33%
[4]; [14]
  Mortality: 0* percent
  Percent showing clonus: 0* percent
  Percent showing extensor: 0* percent
  Percent showing myoclonic jerks: 0* percent
[4]; [15]
  Mortality: 0* percent
  Percent showing clonus: 50* percent
  Percent showing extensor: 0* percent
  Percent showing myoclonic jerks: 50* percent
[4]; [16]
  Mortality: 0* percent
  Percent showing clonus: 0* percent
  Percent showing extensor: 0* percent
  Percent showing myoclonic jerks: 0* percent
